Experimental data: ChEMBL document CHEMBL1201862, “PubChem BioAssay data set” (2004)
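Test compounds were applied to cells in 96-well plates for 48 hours at 5 doses. At the GI50, growth is halved.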 Calls of active or inactive are those of the source. No stated cut-off is given here; in the data, active = GI50 up to about 1.1 µM and inactive = higher.

Tests used:
Assay in all cases: NCI-60 cell line screen, 48 h
[1] = tested on: 786-0
[2] = tested on: A498
[3] = tested on: A549
[4] = tested on: ACHN
[5] = tested on: BT-549
[6] = tested on: CAKI-1
[7] = tested on: CCRF-CEM
[8] = tested on: COLO 205
[9] = tested on: DU-145
[10] = tested on: EKVX
[11] = tested on: HCC 2998
[12] = tested on: HCT-116
[13] = tested on: HCT-15
[14] = tested on: HL-60
[15] = tested on: HOP-62
[16] = tested on: HOP-92
[17] = tested on: HT-29
[18] = tested on: Hs-578T
[19] = tested on: IGROV-1
[20] = tested on: K562
[21] = tested on: KM12
[22] = tested on: LOX IMVI
[23] = tested on: M14
[24] = tested on: MCF7
[25] = tested on: MDA-MB-231
[26] = tested on: MDA-MB-435
[27] = tested on: MDA-N
[28] = tested on: MOLT-4
[29] = tested on: Malme-3M
[30] = tested on: NCI-H226
[31] = tested on: NCI-H23
[32] = tested on: NCI-H460
[33] = tested on: NCI-H522
[34] = tested on: NCI/ADR-RES
[35] = tested on: OVCAR-3
[36] = tested on: OVCAR-4
[37] = tested on: OVCAR-5
[38] = tested on: OVCAR-8
[39] = tested on: PC-3
[40] = tested on: RPMI-8226
[41] = tested on: RXF 393
[42] = tested on: SF-268
[43] = tested on: SF-295
[44] = tested on: SF-539
[45] = tested on: SK-MEL-28
[46] = tested on: SK-MEL-2
[47] = tested on: SK-MEL-5
[48] = tested on: SK-OV-3
[49] = tested on: SN12C
[50] = tested on: SNB-19
[51] = tested on: SNB-75
[52] = tested on: SR
[53] = tested on: SW-620
[54] = tested on: T47D
[55] = tested on: TK-10
[56] = tested on: U-251
[57] = tested on: UACC-257
[58] = tested on: UACC-62
[59] = tested on: UO-31

Measured: GI50

CCN(CC)c1ccc(/C=C/C2=NN(c3cccc(S(=O)(=O)O)c3)C3(C2)C(Cl)C(=O)N3c2nc3ccccc3s2)cc1 (stereo not drawn)
7.03 µM: [13]
inactive: [1] 5.65 µM | [2] 12 µM | [3] 11.2 µM | [4] 10.9 µM | [5] 9.25 µM | [6] 3.48 µM | [7] 1.83 µM | [8] 14.1 µM | [9] 12.6 µM | [10] 8.79 µM | [11] 7.36 µM | [12] 10.5 µM | [14] 1.89 µM | [15] 7.36 µM | [16] 6.73 µM | [17] 13.8 µM | [18] 14.4 µM | [19] 4.88 µM | [20] 5.55 µM | [21] 7.83 µM | [22] 2.82 µM | [23] 12.4 µM | [24] 6.7 µM | [25] 7.8 µM | [26] 5.87 µM | [27] 12.4 µM | [28] 3.04 µM | [29] 11.1 µM | [30] 13.1 µM | [31] 7.01 µM | [32] 9.1 µM | [33] 1.72 µM | [34] 17.9 µM | [35] 4.11 µM | [36] 4.89 µM | [37] 23.1 µM | [38] 8.99 µM | [39] 8.28 µM | [40] 2.32 µM | [41] 3.98 µM | [42] 16.8 µM | [43] 13.3 µM | [44] 3.32 µM | [45] 20.7 µM | [46] 12.5 µM | [47] 6.71 µM | [48] 12.4 µM | [49] 8.18 µM | [50] 12.5 µM | [51] 11.1 µM | [52] 2.47 µM | [53] 10.2 µM | [54] 3.06 µM | [55] 4.95 µM | [56] 3.4 µM | [57] 7.24 µM | [58] 7.91 µM | [59] 1.72 µM

O=C(/C=C/c1cccc2ccccc12)c1ccccc1
inactive: [1] 8.83 µM | [2] 17.4 µM | [3] 15.2 µM | [4] 13.9 µM | [5] 13.2 µM | [6] 12.2 µM | [7] 3.28 µM | [8] 20.7 µM | [9] 14.8 µM | [10] 13.4 µM | [11] 15.7 µM | [12] 10.3 µM | [14] 2.88 µM | [15] 19.8 µM | [16] 18.3 µM | [17] 4.57 µM | [18] 26.3 µM | [19] 7.45 µM | [20] 2.74 µM | [21] 4.71 µM | [22] 1.99 µM | [23] 14.6 µM | [24] 1.29 µM | [25] 8.93 µM | [26] 8.81 µM | [27] 5.71 µM | [28] 3.94 µM | [29] 12.9 µM | [30] 12.7 µM | [31] 13.7 µM | [32] 16.1 µM | [33] 10.1 µM | [34] 14 µM | [35] 9.16 µM | [36] 12.9 µM | [37] 13.8 µM | [38] 8.45 µM | [39] 7.05 µM | [40] 2.31 µM | [41] 10.9 µM | [42] 16.5 µM | [43] 16.5 µM | [44] 3.57 µM | [45] 17.7 µM | [46] 14 µM | [47] 12.5 µM | [48] 16.3 µM | [49] 7.89 µM | [50] 14.5 µM | [51] 15.9 µM | [52] 2.9 µM | [53] 4 µM | [54] 11.7 µM | [55] 6.35 µM | [56] 8.63 µM | [57] 15 µM | [58] 11.7 µM | [59] 11.6 µM
6.85 µM: [13]
